Results from US9113629B2, “4-amino-6-(4-substituted-phenyl)-picolinates and 6-amino-2-(4-substituted-phenyl)-pyrimidine-4-carboxylates and their use as herbicides” (DOW AGROSCIENCES LLC, priority 2013, dated 2015).
Like-named read-outs stand apart in the source and are kept apart here.

Assays:
[1] = test system: Key Broadleaf Weed and Crop Species; assay: Post-emergent Test II herbicidal activity (Table 5); assay type: in vivo; conditions: post-emergence, 336 h, post-emergent, 14 days after application; for pest or weed control at 70 g/ha: 70 g ai/ha; for pest or weed control at 140 g/ha: 140 g ai/ha
In short: (§1)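 Percent injury, 0 (none) to 100 (complete kill), was judged visually 14 d after spraying young plants at the first or second true leaf stage with compound in an acetone/DMSO aqueous carrier at 187 L/ha. Plants were kept in a greenhouse at 23–29 °C by day.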

[2] = test system: Key Grass and Sedge Weeds as well as Grass Crops; assay: Post-emergent Test II herbicidal activity (Table 6); assay type: in vivo; conditions: post-emergence, 336 h; for pest or weed control at 70 g/ha: application rate 70 g ai/ha; for pest or weed control at 140 g/ha: application rate 140 g ai/ha
In short: as §1

[3] = ABUTH: velvetleaf (Abutilon theophrasti), read-out: Visual Growth Reduction (%) 14 Days After Application ABUTH
[4] = AMARE: redroot pigweed (Amaranthus retroflexus), read-out: Visual Growth Reduction (%) 14 Days After Application AMARE
[5] = BRSNN: oilseed-rape, canola (Brassica napus), read-out: Visual Growth Reduction (%) 14 Days After Application BRSNN
[6] = CHEAL: lambsquarters (Chenopodium album), read-out: Visual Growth Reduction (%) 14 Days After Application CHEAL
[7] = EPHHL: wild poinsettia (Euphorbia heterophylla), read-out: Visual Growth Reduction (%) 14 Days After Application EPHHL
[8] = HELAN: sunflower (Helianthus annuus), read-out: Visual Growth Reduction (%) 14 Days After Application HELAN
[9] = VIOTR: wild pansy (Viola tricolor), read-out: Visual Growth Reduction (%) 14 Days After Application VIOTR
[10] = Triticum aestivum, TRZSS (wheat), read-out: Visual Growth Reduction (%) 14 Days After Application, TRZSS
[11] = CYPES: yellow nutsedge (Cyperus esculentus), read-out: Visual Growth Reduction (%) 14 Days After Application, CYPES
[12] = DIGSA: crabgrass (Digitaria sanguinalis), read-out: Visual Growth Reduction (%) 14 Days After Application, DIGSA
[13] = ECHCG: barnyardgrass (Echinochloa crus-galli), read-out: Visual Growth Reduction (%) 14 Days After Application, ECHCG
[14] = ORYSA: rice (Oryza sativa), read-out: Visual Growth Reduction (%) 14 Days After Application, ORYSA
[15] = SETFA: giant foxtail (Setaria faberi), read-out: Visual Growth Reduction (%) 14 Days After Application, SETFA
[16] = SORVU: grain sorghum (Sorghum vulgare), read-out: Visual Growth Reduction (%) 14 Days After Application, SORVU
[17] = ZEAMX: maize, corn (Zea mays), read-out: Visual Growth Reduction (%) 14 Days After Application, ZEAMX

| Compound | pest or weed control at 70 g/ha [1, 3] | pest or weed control at 140 g/ha [1, 3] | pest or weed control at 70 g/ha [1, 4] | pest or weed control at 140 g/ha [1, 4] | pest or weed control at 70 g/ha [1, 5] | pest or weed control at 140 g/ha [1, 5] | pest or weed control at 70 g/ha [1, 6] | pest or weed control at 140 g/ha [1, 6] | pest or weed control at 70 g/ha [1, 7] | pest or weed control at 140 g/ha [1, 7] | pest or weed control at 70 g/ha [1, 8] | pest or weed control at 140 g/ha [1, 8] | pest or weed control at 70 g/ha [1, 9] | pest or weed control at 140 g/ha [1, 9] | pest or weed control at 70 g/ha [2, 10] | pest or weed control at 140 g/ha [2, 10] | pest or weed control at 70 g/ha [2, 11] | pest or weed control at 140 g/ha [2, 11] | pest or weed control at 70 g/ha [2, 12] | pest or weed control at 140 g/ha [2, 12] | further results |
| --- | --- | --- | --- | --- | --- | --- | --- | --- | --- | --- | --- | --- | --- | --- | --- | --- | --- | --- | --- | --- | --- |
| COC(=O)c1nc(-c2ccc(OC(F)F)cc2)cc(N)c1Cl [Compound 23] | 95 to 100% | 95 to 100% | 95 to 100% | 95 to 100% | 0 to 29% | 0 to 29% | 85 to 94% | 95 to 100% | 95 to 100% | 95 to 100% | 0 to 29% | 85 to 94% | 0 to 29% | 0 to 29% | 0 to 29% | 0 to 29% | 45 to 59% | 75 to 84% | 75 to 84% | 75 to 84% | pest or weed control at 70 g/ha [2, 13]: 85 to 94%; pest or weed control at 140 g/ha [2, 13]: 95 to 100%; pest or weed control at 70 g/ha [2, 14]: 0 to 29%; pest or weed control at 140 g/ha [2, 14]: 0 to 29%; pest or weed control at 70 g/ha [2, 15]: 0 to 29%; pest or weed control at 140 g/ha [2, 15]: 45 to 59%; pest or weed control at 70 g/ha [2, 16]: 85 to 94%; pest or weed control at 140 g/ha [2, 16]: 95 to 100%; pest or weed control at 70 g/ha [2, 17]: 0 to 29%; pest or weed control at 140 g/ha [2, 17]: 0 to 29% |
| COC(=O)c1nc(-c2ccc(I)c(F)c2)nc(N)c1OC [Compound 27, Methyl 6-amino-2-(3-fluoro-4-iodophenyl)-5-methoxypyrimidine-4-carboxylate] | 60 to 74% | 75 to 84% | 60 to 74% | 75 to 84% | 60 to 74% | 60 to 74% | 85 to 94% | 85 to 94% | 95 to 100% | 95 to 100% | 85 to 94% | 85 to 94% | 95 to 100% | 95 to 100% | 45 to 59% | 45 to 59% | 0 to 29% | 95 to 100% | 0 to 29% | 0 to 29% | pest or weed control at 70 g/ha [2, 13]: 0 to 29%; pest or weed control at 140 g/ha [2, 13]: 0 to 29%; pest or weed control at 70 g/ha [2, 14]: 0 to 29%; pest or weed control at 140 g/ha [2, 14]: 0 to 29%; pest or weed control at 70 g/ha [2, 15]: 0 to 29%; pest or weed control at 140 g/ha [2, 15]: 0 to 29%; pest or weed control at 70 g/ha [2, 16]: 0 to 29%; pest or weed control at 140 g/ha [2, 16]: 30 to 44%; pest or weed control at 70 g/ha [2, 17]: 0 to 29%; pest or weed control at 140 g/ha [2, 17]: 0 to 29% |
| C#Cc1ccc(-c2nc(C(=O)OC)c(Cl)c(N)c2Cl)cc1 [Compound 34] | 95 to 100% | 95 to 100% | 95 to 100% | 95 to 100% | 85 to 94% | 95 to 100% | 95 to 100% | 95 to 100% | 75 to 84% | 85 to 94% | 95 to 100% | 95 to 100% | 0 to 29% | 0 to 29% | 60 to 74% | 60 to 74% | 60 to 74% | 60 to 74% | 0 to 29% | 45 to 59% | pest or weed control at 70 g/ha [2, 13]: 0 to 29%; pest or weed control at 140 g/ha [2, 13]: 0 to 29%; pest or weed control at 70 g/ha [2, 14]: 0 to 29%; pest or weed control at 140 g/ha [2, 14]: 0 to 29%; pest or weed control at 70 g/ha [2, 15]: 75 to 84%; pest or weed control at 140 g/ha [2, 15]: 85 to 94%; pest or weed control at 70 g/ha [2, 16]: 30 to 44%; pest or weed control at 140 g/ha [2, 16]: 45 to 59%; pest or weed control at 70 g/ha [2, 17]: 60 to 74%; pest or weed control at 140 g/ha [2, 17]: 60 to 74% |
| C#Cc1ccc(-c2nc(C(=O)O)c(C=C)c(N)c2F)cc1 [Compound 36] | 0 to 29% | 0 to 29% | 95 to 100% | 95 to 100% | 0 to 29% | 0 to 29% | 85 to 94% | 85 to 94% | 95 to 100% | 95 to 100% | 85 to 94% | 85 to 94% | 0 to 29% | 0 to 29% | 45 to 59% | 45 to 59% | 0 to 29% | 95 to 100% | 0 to 29% | 0 to 29% | pest or weed control at 70 g/ha [2, 13]: 60 to 74%; pest or weed control at 140 g/ha [2, 13]: 75 to 84%; pest or weed control at 70 g/ha [2, 14]: 0 to 29%; pest or weed control at 140 g/ha [2, 14]: 0 to 29%; pest or weed control at 70 g/ha [2, 15]: 0 to 29%; pest or weed control at 140 g/ha [2, 15]: 0 to 29%; pest or weed control at 70 g/ha [2, 16]: 60 to 74%; pest or weed control at 140 g/ha [2, 16]: 60 to 74%; pest or weed control at 70 g/ha [2, 17]: 30 to 44%; pest or weed control at 140 g/ha [2, 17]: 45 to 59% |
| COc1c(N)nc(-c2ccc(I)c(F)c2)nc1C(=O)O [Compound 37, 6-Amino-2-(3-fluoro-4-iodophenyl)-5-methoxypyrimidine-4-carboxylic acid] | 45 to 59% | 60 to 74% | 85 to 94% | 85 to 94% | 95 to 100% | 95 to 100% | 95 to 100% | 95 to 100% | 95 to 100% | 95 to 100% | 85 to 94% | 85 to 94% | 95 to 100% | 95 to 100% | 45 to 59% | 60 to 74% | 0 to 29% | 0 to 29% | 45 to 59% | 60 to 74% | pest or weed control at 70 g/ha [2, 13]: 75 to 84%; pest or weed control at 140 g/ha [2, 13]: 75 to 84%; pest or weed control at 70 g/ha [2, 14]: 0 to 29%; pest or weed control at 140 g/ha [2, 14]: 0 to 29%; pest or weed control at 70 g/ha [2, 15]: 0 to 29%; pest or weed control at 140 g/ha [2, 15]: 60 to 74%; pest or weed control at 70 g/ha [2, 16]: 75 to 84%; pest or weed control at 140 g/ha [2, 16]: 85 to 94%; pest or weed control at 70 g/ha [2, 17]: 0 to 29%; pest or weed control at 140 g/ha [2, 17]: 45 to 59% |
